Measured values taken from the NIST ThermoML archive (doi:10.1016/j.fluid.2010.10.009).
Numbers after ± are expanded uncertainties.

What was measured:
[1] = xn = mol fraction of the nth substance listed; details: 101 kPa, Liquid, Concentric cylinders viscometry
[2] = 303.15 K; 101.33 kPa; Liquid; Concentric cylinders viscometry

Structure (SMILES): CC(C)(C)O [2-methylpropan-2-ol] + CCCCCCCCCC
- viscosity ([1]; 303.15 K, x1 = 1): 3.387 ± 0.016 mPa·s
- viscosity ([1]; 308.15 K, x1 = 1): 2.63 ± 0.014 mPa·s
- viscosity ([1]; 313.15 K, x1 = 1): 2.097 ± 0.012 mPa·s
- viscosity ([1]; 318.15 K, x1 = 1): 1.707 ± 0.011 mPa·s
- viscosity ([1]; 323.15 K, x1 = 1): 1.415 ± 0.01 mPa·s

Structure (SMILES): CCCCCCCCCC [decane]
- viscosity [2]: 0.7838 ± 0.0092 mPa·s

Structure (SMILES): CCCCCCCCCC [decane] + CC(C)(C)O
- viscosity ([1]; 303.15 K, x2 = 0): 0.7838 ± 0.0092 mPa·s
- viscosity ([1]; 303.15 K, x2 = 0.1003): 0.7786 ± 0.0091 mPa·s
- viscosity ([1]; 303.15 K, x2 = 0.2001): 0.7925 ± 0.009 mPa·s
- viscosity ([1]; 303.15 K, x2 = 0.3): 0.825 ± 0.009 mPa·s
- viscosity ([1]; 303.15 K, x2 = 0.3997): 0.8622 ± 0.009 mPa·s
- viscosity ([1]; 303.15 K, x2 = 0.5): 0.9148 ± 0.0091 mPa·s
- viscosity ([1]; 303.15 K, x2 = 0.5999): 0.9861 ± 0.0092 mPa·s
- viscosity ([1]; 303.15 K, x2 = 0.6997): 1.129 ± 0.0096 mPa·s
- viscosity ([1]; 303.15 K, x2 = 0.8001): 1.372 ± 0.01 mPa·s
- viscosity ([1]; 303.15 K, x2 = 0.8999): 1.937 ± 0.012 mPa·s
- viscosity ([1]; 303.15 K, x2 = 0.9499): 2.366 ± 0.014 mPa·s
- viscosity ([1]; 308.15 K, x2 = 0): 0.7337 ± 0.009 mPa·s
- viscosity ([1]; 308.15 K, x2 = 0.1003): 0.7263 ± 0.0089 mPa·s
- viscosity ([1]; 308.15 K, x2 = 0.2001): 0.7382 ± 0.0088 mPa·s
- viscosity ([1]; 308.15 K, x2 = 0.3): 0.7653 ± 0.0088 mPa·s
- viscosity ([1]; 308.15 K, x2 = 0.3997): 0.7934 ± 0.0088 mPa·s
- viscosity ([1]; 308.15 K, x2 = 0.5): 0.8404 ± 0.0089 mPa·s
- viscosity ([1]; 308.15 K, x2 = 0.5999): 0.8974 ± 0.009 mPa·s
- viscosity ([1]; 308.15 K, x2 = 0.6997): 1.01 ± 0.0092 mPa·s
- viscosity ([1]; 308.15 K, x2 = 0.8001): 1.199 ± 0.0096 mPa·s
- viscosity ([1]; 308.15 K, x2 = 0.8999): 1.621 ± 0.011 mPa·s
- viscosity ([1]; 308.15 K, x2 = 0.9499): 1.948 ± 0.012 mPa·s
- viscosity ([1]; 313.15 K, x2 = 0): 0.6883 ± 0.0088 mPa·s
- viscosity ([1]; 313.15 K, x2 = 0.1003): 0.6791 ± 0.0087 mPa·s
- viscosity ([1]; 313.15 K, x2 = 0.2001): 0.6879 ± 0.0087 mPa·s
- viscosity ([1]; 313.15 K, x2 = 0.3): 0.7104 ± 0.0086 mPa·s
- viscosity ([1]; 313.15 K, x2 = 0.3997): 0.7326 ± 0.0086 mPa·s
- viscosity ([1]; 313.15 K, x2 = 0.5): 0.7726 ± 0.0087 mPa·s
- viscosity ([1]; 313.15 K, x2 = 0.5999): 0.8188 ± 0.0087 mPa·s
- viscosity ([1]; 313.15 K, x2 = 0.6997): 0.9091 ± 0.0089 mPa·s
- viscosity ([1]; 313.15 K, x2 = 0.8001): 1.058 ± 0.0092 mPa·s
- viscosity ([1]; 313.15 K, x2 = 0.8999): 1.376 ± 0.01 mPa·s
- viscosity ([1]; 313.15 K, x2 = 0.9499): 1.614 ± 0.011 mPa·s
- viscosity ([1]; 318.15 K, x2 = 0): 0.6466 ± 0.0087 mPa·s
- viscosity ([1]; 318.15 K, x2 = 0.1003): 0.6362 ± 0.0086 mPa·s
- viscosity ([1]; 318.15 K, x2 = 0.2001): 0.6422 ± 0.0085 mPa·s
- viscosity ([1]; 318.15 K, x2 = 0.3): 0.6604 ± 0.0085 mPa·s
- viscosity ([1]; 318.15 K, x2 = 0.3997): 0.6775 ± 0.0085 mPa·s
- viscosity ([1]; 318.15 K, x2 = 0.5): 0.7125 ± 0.0085 mPa·s
- viscosity ([1]; 318.15 K, x2 = 0.5999): 0.7493 ± 0.0085 mPa·s
- viscosity ([1]; 318.15 K, x2 = 0.6997): 0.8219 ± 0.0087 mPa·s
- viscosity ([1]; 318.15 K, x2 = 0.8001): 0.9404 ± 0.0089 mPa·s
- viscosity ([1]; 318.15 K, x2 = 0.8999): 1.182 ± 0.0095 mPa·s
- viscosity ([1]; 318.15 K, x2 = 0.9499): 1.357 ± 0.01 mPa·s
- viscosity ([1]; 323.15 K, x2 = 0): 0.6085 ± 0.0085 mPa·s
- viscosity ([1]; 323.15 K, x2 = 0.1003): 0.597 ± 0.0084 mPa·s
- viscosity ([1]; 323.15 K, x2 = 0.2001): 0.6002 ± 0.0084 mPa·s
- viscosity ([1]; 323.15 K, x2 = 0.3): 0.6153 ± 0.0084 mPa·s
- viscosity ([1]; 323.15 K, x2 = 0.3997): 0.627 ± 0.0083 mPa·s
- viscosity ([1]; 323.15 K, x2 = 0.5): 0.6566 ± 0.0084 mPa·s
- viscosity ([1]; 323.15 K, x2 = 0.5999): 0.6869 ± 0.0084 mPa·s
- viscosity ([1]; 323.15 K, x2 = 0.6997): 0.7459 ± 0.0085 mPa·s
- viscosity ([1]; 323.15 K, x2 = 0.8001): 0.8399 ± 0.0086 mPa·s
- viscosity ([1]; 323.15 K, x2 = 0.8999): 1.024 ± 0.0091 mPa·s
- viscosity ([1]; 323.15 K, x2 = 0.9499): 1.155 ± 0.0094 mPa·s

Structure (SMILES): CCCCCCC [heptane]
- viscosity [2]: 0.3773 ± 0.0076 mPa·s
